Experimental data reported in patent US20030068615A1, “Polypeptides that bind HIV gp120 and related nucleic acids, antibodies, compositions, and methods of use” (priority 1999, published 2003).
Several values for one entry are separate records, joined by “and”; a condition that tells them apart may be missing. Equal entries are not always repeated. Where two headings read alike, the source gives them in different places.

Target: HIV-1LAI envelope gp120 (Human immunodeficiency virus type 1 group M subtype B, UniProt P03377)
Format: binding
Conditions: for Counts per 20′ Average-background: CCR5 18-mer scan, radiolabeled HIV-1LAI gp120; for number of radioactive decays (counts) counted: human CD4 21-mer scan, empty control 2075; for Binding Results For Window Length (counts bound-background), 9 / Binding Results For Window Length (counts bound-background), 12 / Binding Results For Window Length (counts bound-background), 15 / Binding Results For Window Length (counts bound-background), 18: STRL33 amino terminus; for Binding Results For Window Length (counts bound-background), 9: 9-mer starting at the first residue of the printed sequence; for Binding Results For Window Length (counts bound-background), 12: 12-mer starting at the first residue of the printed sequence; for Binding Results For Window Length (counts bound-background), 15: 15-mer starting at the first residue of the printed sequence; for Binding Results For Window Length (counts bound-background), 18: 18-mer starting at the first residue of the printed sequence
[1] = Panel D, 9-mers and 12-mers of CD4, empty control […]
[2] = Panel B, 15-mers and 18-mers of CD4, empty control 575
[3] = STRL33 18-mer scan, background subtracted, first of two count columns
[4] = STRL33 18-mer scan, background subtracted, second of two count columns
[5] = CXCR4 18-mer scan, background subtracted, empty control 0
[6] = CXCR4 18-mer scan, empty control 412
[7] = Panel E, 9-mers and 12-mers of CD4, empty control 571
[8] = Panel C, 15-mers and 18-mers of CD4, empty control 556
[9] = Panel A, 21-mers of CD4, empty control 515 and 617
[10] = Panel G, alanine replacements and serial truncations (Z) of CD4 polypeptides, empty control 580

FGLTANSDTHLL
COUNTS of radiolabeled gp120 retained [1]: 571 counts

FGLTANSDTHLLQGQ
COUNTS of radiolabeled gp120 retained [2]: 625 counts

FGLTANSDTHLLQGQSLT
COUNTS of radiolabeled gp120 retained [2]: 591 counts

FGQVMCKSLLGIYTINFY
radioactive counts recorded in twenty minutes [3]: 1257.5 counts
radioactive counts recorded in twenty minutes [4]: 1354.5 counts

FHCCLNPILYAFLGAKFK [CXCR4 segment 293-310]
radioactive counts recorded in twenty minutes [5]: 123 counts
radioactive counts recorded in twenty minutes [6]: 535 counts

FIFGFVGNMLVILILINC [CCR5 segment 41-58]
Counts per 20′ Average-background (background subtracted): 343 counts per 20′

FIGFFSGIFFIILLTIDR
Counts per 20′ Average-background (background subtracted): 76 counts per 20′

FIGLGIFFCVRCRHRRRQAER
number of radioactive decays (counts) counted: 1900 counts

FISLDRYLAIVHATNSQR
radioactive counts recorded in twenty minutes [5]: 91 counts
radioactive counts recorded in twenty minutes [6]: 503 counts

FKIDIVVLA
COUNTS of radiolabeled gp120 retained [7]: 568 counts

FKIDIVVLAFQK
COUNTS of radiolabeled gp120 retained [7]: 736 counts

FKIDIVVLAFQKASS
COUNTS of radiolabeled gp120 retained [8]: 1001 counts

FKIDIVVLAFQKASSIVY
COUNTS of radiolabeled gp120 retained [8]: 843 counts

FKIDIVVLAFQKASSIVYKKE
COUNTS of radiolabeled gp120 retained [9]: 593 counts

FKTSAQHALTSVSRGSSL
radioactive counts recorded in twenty minutes [5]: 173 counts
radioactive counts recorded in twenty minutes [6]: 585 counts

FLFWAPYNIVLLLNTFQE [CCR5 segment 245-]
Counts per 20′ Average-background (background subtracted): 616 counts per 20′

FLPCMYLVVFVCGLVGNS [STRL33 segment 33-50]
radioactive counts recorded in twenty minutes [3]: 605.5 counts
radioactive counts recorded in twenty minutes [4]: 372.5 counts

FLPLLTMIVCYSVIIKTL
radioactive counts recorded in twenty minutes [3]: 1270.5 counts
radioactive counts recorded in twenty minutes [4]: 1195.5 counts

FLTGIVGNGLVILVMGYQ [CXCR4 segment 49-66]
radioactive counts recorded in twenty minutes [5]: 246 counts
radioactive counts recorded in twenty minutes [6]: 658 counts

FLVNLPLADLVFVCTLPF [STRL33 segment 69-86]
radioactive counts recorded in twenty minutes [3]: 70.5 counts
radioactive counts recorded in twenty minutes [4]: 51.5 counts

FNDSSQEEEQAFLQFSKV
Binding Results For Window Length (counts bound-background), 9 (background subtracted): 246 counts
Binding Results For Window Length (counts bound-background), 12 (background subtracted): 470 counts
Binding Results For Window Length (counts bound-background), 15 (background subtracted): 4089 counts
Binding Results For Window Length (counts bound-background), 18 (background subtracted): 4678 counts

FNLDKLICGYHDEAISTV
radioactive counts recorded in twenty minutes [3]: 1072.5 counts
radioactive counts recorded in twenty minutes [4]: 1078.5 counts

FPLAFTVEK
COUNTS of radiolabeled gp120 retained [7]: 569 counts

FPLAFTVEKLTG
COUNTS of radiolabeled gp120 retained [7]: 622 counts

FPLAFTVEKLTGSGE
COUNTS of radiolabeled gp120 retained [8]: 556 counts

FPLAFTVEKLTGSGELWW
COUNTS of radiolabeled gp120 retained [8]: 586 counts

FPLAFTVEKLTGSGELWWQAE
COUNTS of radiolabeled gp120 retained [9]: 6276 counts

FPLIIKNLK
COUNTS of radiolabeled gp120 retained [1]: 601 counts

FPLIIKNLKIED
COUNTS of radiolabeled gp120 retained [1]: 511 counts

FPLIIKNLKIEDSDT
COUNTS of radiolabeled gp120 retained [2]: 539 counts

FPLIIKNLKIEDSDTYIC
COUNTS of radiolabeled gp120 retained [2]: 509 counts

FQHIMVGLILPGIVILSC
radioactive counts recorded in twenty minutes [5]: 170 counts
radioactive counts recorded in twenty minutes [6]: 582 counts

FQKASSIVY
COUNTS of radiolabeled gp120 retained [7]: 568 counts

FQKASSIVYKKE
COUNTS of radiolabeled gp120 retained [7]: 577 counts

FQKASSIVYKKEGEQ
COUNTS of radiolabeled gp120 retained [8]: 637 counts

FQKASSIVYKKEGEQVEF
COUNTS of radiolabeled gp120 retained [8]: 528 counts

FQKASSIVYKKEGEQVEFSFP
COUNTS of radiolabeled gp120 retained [9]: 9382 counts

FQTLKIVILGLVLPLLVM [CCR5 segment 193-]
Counts per 20′ Average-background (background subtracted): 45 counts per 20′

FREENANFNKIFLPTIYS [CXCR4 segment 29-46]
radioactive counts recorded in twenty minutes [5]: 51 counts
radioactive counts recorded in twenty minutes [6]: 463 counts

FSFPLAFTV
COUNTS of radiolabeled gp120 retained [7]: 472 counts

FSFPLAFTVEKL
COUNTS of radiolabeled gp120 retained [7]: 573 counts

FSFPLAFTVEKLTGS
COUNTS of radiolabeled gp120 retained [8]: 672 counts

FSFPLAFTVEKLTGSGEL
COUNTS of radiolabeled gp120 retained [8]: 613 counts

FSFPLAFTVEKLTGSGELWWQ
COUNTS of radiolabeled gp120 retained [9]: 4163 counts
number of radioactive decays (counts) counted: 9673 counts

FSGIFFIILLTIDRYLAV [CCR5 segment 113-]
Counts per 20′ Average-background (background subtracted): 83 counts per 20′

FSKVFLPCMYLVVFVCGL [STRL33 segment 29-46]
radioactive counts recorded in twenty minutes [3]: 534.5 counts
radioactive counts recorded in twenty minutes [4]: 633.5 counts

FSSFNDSSQEEHQAFLQF
Binding Results For Window Length (counts bound-background), 9 (background subtracted): 249 counts
Binding Results For Window Length (counts bound-background), 12 (background subtracted): 403 counts
Binding Results For Window Length (counts bound-background), 15 (background subtracted): 361 counts
Binding Results For Window Length (counts bound-background), 18 (background subtracted): 3608 counts

FTVEKLTGS
COUNTS of radiolabeled gp120 retained [7]: 574 counts

FTVEKLTGSGEL
COUNTS of radiolabeled gp120 retained [7]: 530 counts

FTVEKLTGSGELWWQ
COUNTS of radiolabeled gp120 retained [8]: 625 counts

FTVEKLTGSGELWWQAER
COUNTS of radiolabeled gp120 retained [8]: 1143 counts

FVGNMLVILILINCKRLK [CCR5 segment 45-62]
Counts per 20′ Average-background (background subtracted): 62 counts per 20′

FWAHYAAAQWDFGNTMCQ [CCR5 segment 85-]
Counts per 20′ Average-background (background subtracted): 212 counts per 20′

FWAVDAVANWYFGNFLCK [CXCR4 segment 93-110]
radioactive counts recorded in twenty minutes [5]: 66 counts
radioactive counts recorded in twenty minutes [6]: 478 counts

FWKNFQTLKIVILGLVLP [CCR5 segment 189-]
Counts per 20′ Average-background (background subtracted): 40 counts per 20′

FYPNDLWVVVFQFQHIMV [CXCR4 segment 189-206]
radioactive counts recorded in twenty minutes [5]: 416 counts
radioactive counts recorded in twenty minutes [6]: 828 counts

FYTSMLILTCITVDRFIV [STRL33 segment 113-130]
radioactive counts recorded in twenty minutes [3]: 744.5 counts
radioactive counts recorded in twenty minutes [4]: 907.5 counts

GAQVEFSFPLAFTVE
COUNTS of radiolabeled gp120 retained [10]: 18079 counts and 17733 counts

GCEFENTVHKWISITEAL [CXCR4 segment 273-290]
radioactive counts recorded in twenty minutes [5]: 264 counts
radioactive counts recorded in twenty minutes [6]: 676 counts

GEAVEFSFPLAFTVE
COUNTS of radiolabeled gp120 retained [10]: 19756 counts and 17500 counts

GEKFRNYLLVFFQKHIAK [CCR5 segment 301-]
Counts per 20′ Average-background (background subtracted): 69 counts per 20′

GELWWQAERASSSKSWITFDL [human CD4 236-256]
number of radioactive decays (counts) counted: 2730 counts

GEQAEFSFPLAFTVE
COUNTS of radiolabeled gp120 retained [10]: 14764 counts and 13000 counts

GEQVAFSFPLAFTVE
COUNTS of radiolabeled gp120 retained [10]: 16668 counts and 13930 counts

GEQVEASFPLAFTVE
COUNTS of radiolabeled gp120 retained [10]: 6793 counts and 6533 counts

GEQVEFAFPLAFTVE
COUNTS of radiolabeled gp120 retained [10]: 21681 counts and 20072 counts

GEQVEFSAPLAFTVE
COUNTS of radiolabeled gp120 retained [10]: 7767 counts and 7378 counts

GEQVEFSFALAFTVE
COUNTS of radiolabeled gp120 retained [10]: 20480 counts and 19480 counts

GEQVEFSFP
COUNTS of radiolabeled gp120 retained [7]: 697 counts

GEQVEFSFPAAFTVE
COUNTS of radiolabeled gp120 retained [10]: 10024 counts and 10589 counts

GEQVEFSFPLAATVE
COUNTS of radiolabeled gp120 retained [10]: 10130 counts and 9572 counts

GEQVEFSFPLAF
COUNTS of radiolabeled gp120 retained [7]: 1729 counts

GEQVEFSFPLAFAVE
COUNTS of radiolabeled gp120 retained [10]: 20627 counts and 19516 counts

GEQVEFSFPLAFTAE
COUNTS of radiolabeled gp120 retained [10]: 18797 counts and 16765 counts

GEQVEFSFPLAFTVA
COUNTS of radiolabeled gp120 retained [10]: 18371 counts and 18187 counts

GEQVEFSFPLAFTVE
COUNTS of radiolabeled gp120 retained [8]: 4656 counts
COUNTS of radiolabeled gp120 retained [10]: 18856 counts and 18867 counts and 20691 counts and 17662 counts and 19190 counts and 18219 counts

GEQVEFSFPLAFTVEKLT
COUNTS of radiolabeled gp120 retained [8]: 1643 counts

GEQVEFSFPLAFTVEKLTGSG [human CD4 216-236]
COUNTS of radiolabeled gp120 retained [9]: 652 counts
number of radioactive decays (counts) counted: 18549 counts

GEQVEFSFPLTFTVE
COUNTS of radiolabeled gp120 retained [10]: 17397 counts and 18318 counts
